Key:
Format in all cases: cell-based
[1] = test system: Treponema isolate; assay: Antimicrobial susceptibility test (MICROSCAN plates) of a patient's Treponema isolate; conditions: Treponema infected patient's isolate; MICROSCAN plates, 35° C., 16-20 hours
Description: For susceptibility testing, the organisms harvested could be assayed using any suitable susceptibility assay (See, Example 7). In some embodiments of the present invention, MICROSCAN antibiotic susceptibility plates were inoculated and incubated. Following incubations, plates were scanned for growth and respective sensitivity reaction. […] For the results to be considered reliable, the no growth of organisms was accepted in the negative control well, while the positive control well had to have sufficient growth to be read. In some embodiments of the present invention, to confirm the presence or absence of growing spirochetes in the growth well, aliquots from the growth well were reinoculated with fresh growth media and after an incubation time (e.g., 7-10 days) the presence of the organisms was confirmed (e.g., by phase contrast microscopy or direct fluorescent antibody staining).
(§1) This example describes the preparation of a pellet used for antimicrobial susceptibility testing of a culture sample. The procedure begins with a culture (e.g., prepared in the manner described in Example 2), where serum from a patient is inoculated in GSI-1 media and allowed to grow. In order to form pellet, an aliquot of this culture sample is placed in a microcentrifuge tube along with 10% SDS solution, and centrifuged at 14,000 g to disrupt the spirochetes and maximize the number of available eptiopic sites. The disrupted spirochetes were then cultured in an alternative growth medium made up of one part GSI-1 medium, one part 6.5% lactalbumin hydrolysate, one part 2% brain heart infusion, one part 10% pluronic fluid, and one part of the isolated (disrupted) spirochetes. This inoculated alternative growth medium was then allowed to incubate in the closed micro centrifuge tube until a distinctive pellet was observed (typically 7-14 days).
This example describes an antimicrobial susceptibility test performed for a human patient. The patient had previously been testing using GSI-1 medium (e.g., as described in Example 2) for the presence of any spirochetes. […] This culture sample was then transferred to a microcentrifuge tube, and a pellet for antimicrobial susceptibility testing was prepared as described in Example 6.
(§2) Following the observation of pellet formation, the tube was vortexed and incubated at 35° C. until a MacFarlane standard of between 8 to 12% turbidity was achieved. MICROSCAN antibiotic susceptibility microtiter plates were then inoculated with (e.g., 110 μl of) inoculum and allowed to incubate at 35° C. for 16-20 hours. The microtiter plates were then scanned for growth and respective sensitivity reaction (both the control well and the growth well). Table 2 below lists the various antimicrobials tested with this sample and whether growth of the organism was inhibited (susceptible) or whether the growth of the organism was not inhibited (resistant).

[2] = test system: E. coli; assay: Antibiotic susceptibility test (MICROSCAN or disc diffusion), control organism E. coli; conditions: total isolates 1
[3] = test system: Tatumella; assay: Antibiotic susceptibility test (MICROSCAN or disc diffusion), control organism Tatumella; conditions: total isolates 2
Source text: as §1, §2
(§3) This Example describes the results for susceptibility tests that were performed on a large number of patient samples positive for either Borrelia or Leptospira. […] The results presented in Table 3 reveal the varied response of different types of spirochetes to different antibiotics.

[4] = test system: Y. entero gp.; assay: Antibiotic susceptibility test (MICROSCAN or disc diffusion), control organism Y. entero gp.; conditions: total isolates 1
[5] = test system: Borrelia; assay: Antibiotic susceptibility test (MICROSCAN or disc diffusion) of patient samples positive for Borrelia; conditions: total isolates 519
Source text: as §1, §2, §3

[6] = test system: Leptospira; assay: Antibiotic susceptibility test (MICROSCAN or disc diffusion) of patient samples positive for Leptospira; conditions: total isolates 276
Source text: as §1, §2, §3

[7] = test system: A. lwoffii; assay: Antibiotic susceptibility test (MICROSCAN or disc diffusion), control organism A. lwoffii; conditions: total isolates 1
[8] = test system: Pseudomonas; assay: Antibiotic susceptibility test (MICROSCAN or disc diffusion), control organism Pseudomonas; conditions: total isolates 1
[9] = test system: Leptospira; assay: Susceptibility testing of Leptospira isolated from a patient with symptoms of multiple sclerosis; conditions: for Antibiotic Susceptibility Results, SERUM: Leptospira culture from serum of multiple sclerosis patient; for Antibiotic Susceptibility Results, URINE: Leptospira culture from urine of multiple sclerosis patient
Description: This example describes the preparation of a pellet used for antimicrobial susceptibility testing of a culture sample. […] In order to form pellet, an aliquot of this culture sample is placed in a microcentrifuge tube along with 10% SDS solution, and centrifuged at 14,000 g to disrupt the spirochetes and maximize the number of available eptiopic sites. […] This inoculated alternative growth medium was then allowed to incubate in the closed micro centrifuge tube until a distinctive pellet was observed (typically 7-14 days).
MICROSCAN antibiotic susceptibility microtiter plates were then inoculated with (e.g., 110 μl of) inoculum and allowed to incubate at 35° C. for 16-20 hours. The microtiter plates were then scanned for growth and respective sensitivity reaction (both the control well and the growth well).

[10] = test system: Leptospira; assay: Susceptibility testing of Leptospira isolated from a patient with symptoms of rheumatoid arthritis; conditions: for Antibiotic Susceptibility Results, SERUM: Leptospira culture from serum of rheumatoid arthritis patient; for Antibiotic Susceptibility Results, URINE: Leptospira culture from urine of rheumatoid arthritis patient
Source text: as §1
as §2, with “well).” for “well). Table 2 below lists the various antimicrobials tested with this sample and whether growth of the organism was inhibited (susceptible) or whether the growth of the organism was not inhibited (resistant).”
This Example describes the diagnosis and treatment of a human patient with symptoms of rheumatoid arthritis. In particular, serum and urine samples from this patient were initially cultured on GSI-1 (e.g., as described in Example 2), and screened for the presence of spirochetes (e.g., as described in Example 3). […] These cultures were then used to produce pellets for antimicrobial susceptibility testing (e.g., as described in Example 6). The antimicrobial susceptibility tests were then carried out on each sample (e.g., as described in Example 7) with the antimicrobials listed below in Table 5.

| Compound | RESULT (antibiotic susceptibility) [1] | Antibiotic Susceptibility Test Results, E. coli [2] [%] | Antibiotic Susceptibility Test Results, Tatumella [3] [%] | Antibiotic Susceptibility Test Results, Y. entero gp. [4] [%] | Antibiotic Susceptibility Test Results, Borrelia [5] [%] | Antibiotic Susceptibility Test Results, Leptospira [6] [%] | Antibiotic Susceptibility Test Results, A. lwoffii [7] [%] | Antibiotic Susceptibility Test Results, Pseudomonas [8] [%] | Antibiotic Susceptibility Results, SERUM [9] | Antibiotic Susceptibility Results, URINE [9] | Antibiotic Susceptibility Results, SERUM [10] | Antibiotic Susceptibility Results, URINE [10] |
| --- | --- | --- | --- | --- | --- | --- | --- | --- | --- | --- | --- | --- |
| Gentamicin | Resistant | 100 | 100 | 100 | 89 | 86 | 100 | 100 | Resistant | Resistant | Resistant | Resistant |
| CCN1CCN(C(=O)N[C@@H](C(=O)N[C@@H]2C(=O)N3[C@@H]2SC(C)(C)[C@@H]3C(=O)O)c2ccccc2)C(=O)C1=O [Piperacillin] | Susceptible | 100 | 100 | 100 | 60 | 55 | 100 | 100 | Resistant | Resistant | Resistant | Resistant |
| C[C@H]1COc2c(N3CCN(C)CC3)c(F)cc3c(=O)c(C(=O)O)cn1c23 [Levofloxacin] |  | 100 | 100 | 100 | 86 | 83 | 100 | 100 | Susceptible | Susceptible | Susceptible | Susceptible |
| NCC[C@H](O)C(=O)N[C@@H]1C[C@H](N)[C@@H](O[C@H]2O[C@H](CN)[C@@H](O)[C@H](O)[C@H]2O)[C@H](O)[C@H]1O[C@H]1O[C@H](CO)[C@@H](O)[C@H](N)[C@H]1O [Amikacin] |  | 100 | 100 | 100 | 84 | 85 | 100 | 100 | Resistant | Resistant | Resistant | Resistant |
| NC[C@H]1O[C@H](O[C@H]2[C@H](O)[C@@H](O[C@H]3O[C@H](CO)[C@@H](O)[C@H](N)[C@H]3O)[C@H](N)C[C@@H]2N)[C@H](N)C[C@@H]1O [Tobramycin] | Intermediate | 100 | 100 | 100 | 81 | 84 | 100 | 100 | Resistant | Resistant | Resistant | Resistant |
